Measured values reported in US8901155B2, “Method for treating a TRPV1-mediated disease” (Santen Pharmaceutical Co., Ltd., priority 2007, dated 2014).

Experiments:
[1] = Rat model of indomethacin-induced gastric mucosal injury; format: in vivo; conditions: indomethacin 30 mg/kg s.c., 6 hours
Experimental: 7. Effect in Rat Model of Gastrointestinal Dysfunction
A model of indomethacin-induced gastric mucosal injury is a model of gastrointestinal dysfunction widely used in the evaluation of drug efficacy of a therapeutic agent for ulcer. According to the method of Hoshino et al. (Folia Pharmacologica Japonica, Vol. 97, p. 287, 1991), the effect of the present compound in a rat model of indomethacin-induced gastric mucosal injury was studied.
A test compound-containing liquid was prepared immediately before use by suspending a test compound in a 1% aqueous methyl cellulose solution which is a vehicle. […]
To a rat fasted for 24 hours, the test compound-containing liquid, control compound-containing liquid, or vehicle (pathological control group) was orally administered, and immediately thereafter, indomethacin (Wako Pure Chemical Industries, Ltd.) was subcutaneously administered at a dose of 30 mg/kg. […] The length of the longest diameter of the site of a lesion dyed in blue including an ecchymosis was measured macroscopically using calipers.
A mean value of the sum of the longest diameters of the sites of lesions was obtained for each animal and was defined as an ulcer index. Further, a ratio of inhibition of gastric mucosal injury was calculated from the following equation. […]

[2] = biological target: T1, human TRPV1 (Homo sapiens, UniProt Q8NER1); assay: Intracellular calcium influx in human TRPV1-expressing CHO cells; format: cell-based; conditions: final concentration 1 μM; relative to 1 μM capsaicin
T1 construct: expressed in transfected cells; host or cells: CHO cells
Text: 3. Measurement of Intracellular Calcium Influx by Present Compound in Human TRPV1-Expressing Cells
It is known that TRPV1 is an ion channel receptor and by the activation of TRPV1, intracellular calcium ion influx occurs. According to the method of Phelps et al. (Eur. J. Pharmacol., 513: 57-66, 2005), the action of the present compound of activating human TRPV1 was studied using CHO cells transfected with a gene encoding human TRPV1.
CHO cells were suspended in DMEM and seeded in a culture plate at 3.5×10^4 cells/well. A test compound or a control compound was dissolved in DMSO to prepare a DMSO solution, and times concentrated test compound-containing liquid and control compound-containing liquid each of which was composed of HBSS and contained the thus prepared DMSO solution were prepared.
To the CHO cells, a calcium indicator was added, and the resulting mixture was incubated at 37° C. for 30 minutes, and then further incubated at 22° C. for 30 minutes to achieve equilibration. Subsequently, one-tenth volume of the test compound-containing liquid, control compound-containing liquid (final concentration: 1 μM), or HBSS solution was added thereto, and a change in the fluorescence intensity of the intracellular calcium concentration indicator was measured.
(Calcium influx(%))=((fluorescence intensity in the presence of test compound)−(background fluorescence intensity)/(fluorescence intensity in the presence of control compound)−(background fluorescence intensity))×100

[3] = biological target: T2, vanilloid receptor (Rattus norvegicus, UniProt O35433); assay: Binding activity in rat spinal cord membrane specimen (3H-RTX competition)
T2 construct: Rat spinal cord was homogenized according to a common procedure; from tissue; host or cells: rat spinal cord membrane specimen
Experimental: Binding Activity of the Present Compound in Rat Spinal Cord Membrane Specimen
According to the method of Szallasi et al., the binding activity of the present compound to a vanilloid receptor contained in a rat spinal cord membrane specimen was studied.
A test compound-containing liquid and a competitive compound-containing liquid containing a test compound and a competitive compound, respectively, and each composed of purified water containing 1% DMSO were prepared. As the competitive compound, tritium-labeled resiniferatoxin (^3H-RTX) was used, and the concentration of ^3H-RTX in the competitive compound-containing liquid was set to 0.2 nM.
Rat spinal cord was homogenized according to a common procedure, and the resulting homogenate was washed several times, followed by centrifugation. The resulting pellet was suspended in an incubation buffer (10 mM HEPES, pH 7.4, 0.25 mg/ml ESA, 0.75 mM CaCl2, 5 mM KCl, 2 mM MgCl2, 5.8 mM NaCl, 137 mM sucrose) at 10 mg/mL, whereby a membrane specimen was prepared.
After 5.25 μL of the test compound-containing liquid and 500 μL of the membrane specimen were mixed, 20 μL of the competitive compound-containing liquid was added thereto, and the entire resulting mixture was incubated at 37° C. for 60 minutes. The resulting membrane/^3H-RTX complex was collected by filtration, followed by washing. Then, the radioactivity was measured with a scintillation counter.
The above-mentioned assay was performed using the test compound-containing liquids containing a test compound at various concentrations and the results were analyzed as follows.
The inhibition ratio (%) of the test compound at each concentration was obtained from the following equation. (Inhibition ratio(%))={1−[(binding activity in the presence of test compound (cpm))−(radioactivity of non-specific binding (cpm))]/[(radioactivity of total binding (cpm))−(radioactivity of non-specific binding (cpm))]×100 […]

[4] = biological target: T3, TRPV1 (Rattus norvegicus, UniProt O35433); assay: CGRP release in cultured rat dorsal root ganglion-derived neurons; format: cell-based
T3 construct: A dorsal root ganglion isolated from the spinal cord of a rat was sectioned and enzymatically treated; endogenous in cells; host or cells: primary cultured rat dorsal root ganglion neurons
Text: 2. Effect of Present Compound on TRPV1 Agonist-Induced CGRP Release System Using Rat Dorsal Root Ganglion-Derived Neurons It is known that TRPV1 is expressed in dorsal root ganglion (DRG), and that by the activation of TRPV1, CGRP which is a neurotransmitter is released from a nerve terminal. According to the method of Ahluwalia et al., (European Journal of Neuroscience, Vol. 17, p. 2611, 2003), the CGRP releasing activity of the present compound in cultured neurons derived from rat DRG was studied. A test compound was weighed and dissolved in DMSO. The resulting solution was diluted with a medium, whereby a test compound-containing liquid was prepared. Each test compound-containing liquid was prepared such that 0.4% DMSO was contained therein as well. […] A dorsal root ganglion isolated from the spinal cord of a rat was sectioned and enzymatically treated with a collagenase/DNase I solution at 37° C. for 1 hour, and then with a trypsin/DNase I solution at 37° C. for 20 minutes. The released neurons were washed and collected, and then seeded in a poly-D-lysine/laminin-coated culture dish and cultured under conditions of 37° C. and 5% CO2 in a neuronal medium (NGF/NCS medium) supplemented with a nerve growth factor for 1 day. The medium was replaced with an NGF/NCS medium containing cytosine arabinoside, and the neurons were further cultured for 2 days. […]

T1 sequence (Q8NER1 whole entry): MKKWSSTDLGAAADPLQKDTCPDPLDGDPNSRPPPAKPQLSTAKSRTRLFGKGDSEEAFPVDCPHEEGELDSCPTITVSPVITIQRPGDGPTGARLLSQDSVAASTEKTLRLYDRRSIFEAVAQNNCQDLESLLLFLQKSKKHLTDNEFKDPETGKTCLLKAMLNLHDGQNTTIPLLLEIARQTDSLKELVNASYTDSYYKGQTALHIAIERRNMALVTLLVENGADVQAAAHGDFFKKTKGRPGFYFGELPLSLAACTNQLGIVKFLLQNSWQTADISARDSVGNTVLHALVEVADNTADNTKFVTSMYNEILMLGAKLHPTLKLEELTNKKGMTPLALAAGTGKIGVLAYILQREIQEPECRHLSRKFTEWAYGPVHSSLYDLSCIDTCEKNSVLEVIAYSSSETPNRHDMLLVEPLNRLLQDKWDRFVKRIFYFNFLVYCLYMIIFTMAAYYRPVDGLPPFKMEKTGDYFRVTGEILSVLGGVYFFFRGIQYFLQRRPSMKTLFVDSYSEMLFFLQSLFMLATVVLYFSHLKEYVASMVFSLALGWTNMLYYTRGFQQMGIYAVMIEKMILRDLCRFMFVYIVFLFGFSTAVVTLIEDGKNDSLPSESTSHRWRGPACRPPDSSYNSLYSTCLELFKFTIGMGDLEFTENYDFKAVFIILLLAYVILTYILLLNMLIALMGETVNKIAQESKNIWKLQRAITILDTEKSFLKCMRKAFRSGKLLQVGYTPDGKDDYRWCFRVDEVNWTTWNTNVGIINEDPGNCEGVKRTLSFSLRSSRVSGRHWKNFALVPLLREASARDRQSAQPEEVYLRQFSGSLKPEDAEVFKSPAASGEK
T2 sequence (O35433 whole entry): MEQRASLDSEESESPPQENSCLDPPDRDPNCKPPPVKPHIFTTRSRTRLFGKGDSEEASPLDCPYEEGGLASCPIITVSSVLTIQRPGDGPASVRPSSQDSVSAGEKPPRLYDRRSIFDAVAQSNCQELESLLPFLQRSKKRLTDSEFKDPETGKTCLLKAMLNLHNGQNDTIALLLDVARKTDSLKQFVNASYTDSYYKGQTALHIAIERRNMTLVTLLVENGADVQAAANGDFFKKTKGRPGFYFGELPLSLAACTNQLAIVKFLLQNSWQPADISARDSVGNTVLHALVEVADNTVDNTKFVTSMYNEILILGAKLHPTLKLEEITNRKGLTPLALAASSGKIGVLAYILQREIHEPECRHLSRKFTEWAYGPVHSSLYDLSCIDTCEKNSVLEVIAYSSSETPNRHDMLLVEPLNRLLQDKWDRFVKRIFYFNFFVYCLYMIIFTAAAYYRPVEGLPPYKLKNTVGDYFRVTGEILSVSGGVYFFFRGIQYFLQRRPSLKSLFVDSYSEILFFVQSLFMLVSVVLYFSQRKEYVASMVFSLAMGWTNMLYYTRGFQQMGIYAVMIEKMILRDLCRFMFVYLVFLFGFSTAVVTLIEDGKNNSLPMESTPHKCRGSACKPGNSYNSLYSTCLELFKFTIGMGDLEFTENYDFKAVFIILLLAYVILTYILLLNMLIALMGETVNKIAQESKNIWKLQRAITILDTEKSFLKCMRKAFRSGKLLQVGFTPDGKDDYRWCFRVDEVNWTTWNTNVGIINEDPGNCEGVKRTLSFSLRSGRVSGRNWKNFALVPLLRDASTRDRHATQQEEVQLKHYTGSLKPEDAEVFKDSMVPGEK
T3 sequence (O35433 whole entry): as above

COc1ccc2[nH]c([S+]([O-])Cc3ncc(C)c(OC)c3C)nc2c1 (stereo not shown) [Omeprazole, omeprazole, reference compound]
inhibition ratio (%) of gastric mucosal injury ([1]; 10 mg/kg oral): 69.22%

CCCCCN(CCC12CC3CC(CC(C3)C1)C2)C(=O)NCC(C)Cc1ccncc1 (single isomer, unassigned; (+)) [Compound 6, (+)-1-[2-(1-adamantyl)ethyl]-3-[2-methyl-3-(4-pyridyl)propyl]-1-pentylurea]
Calcium influx (%) [2]: 76.6%

CCCCCN(CCC12CC3CC(CC(C3)C1)C2)C(=O)NC(C)CCc1ccncc1 (stereo not shown) [Compound 4, 1-[2-(1-adamantyl)ethyl]-3-[1-methyl-3-(4-pyridyl)propyl]-1-pentylurea]
Calcium influx (%) [2]: 43.9%

CCCCCN(CCC12CC3CC(CC(C3)C1)C2)C(=O)NCC(C)Cc1ccncc1 (stereo not shown) [Compound 5, 1-[2-(1-adamantyl)ethyl]-3-[2-methyl-3-(4-pyridyl)propyl]-1-pentylurea]
Calcium influx (%) [2]: 64.3%

CCCN(CCCC12CC3CC(CC(C3)C1)C2)C(=O)NCCCc1ccncc1 [Compound 3, 1-[3-(1-adamantyl)propyl]-1-propyl-3-[3-(4-pyridyl)propyl]urea]
Calcium influx (%) [2]: 59.8%

CCCCCN(CCC12CC3CC(CC(C3)C1)C2)C(=O)NCCCc1ccncc1 [Compound 1, 1-[2-(1-adamantyl)ethyl]-1-pentyl-3-[3-(4-pyridyl)propyl]urea]
IC50 ([3]; 0.2 nM 3H-RTX liquid, 37° C. 60 minutes, mean±SEM of assays performed in triplicate, read-out: IC50 value to the vanilloid receptor in the rat spinal cord neuronal membrane specimen): 191 ± 28 nM | Ki ([3]; from IC50, dissociation constant 0.046 nM, mean±SEM, read-out: Ki value to the vanilloid receptor in the rat spinal cord neuronal membrane specimen): 35.8 ± 5.2 nM | Hill coefficient ([3]; nonlinear regression of inhibition curve): 1.83±0.449 | CGRP release in competitive inhibition assay with capsazepine ([4]; 10 μM (final concentration) capsazepine, FIG. 3): antagonized by capsazepine | CGRP release ([4]; absence of capsazepine, 10 minutes culture, FIG. 2): released CGRP in a dose-dependent manner | inhibition ratio (%) of gastric mucosal injury ([1]; 1 mg/kg oral): 67.41%

O=C(NCCCc1ccncc1)N(CCC(F)(F)F)CCC12CC3CC(CC(C3)C1)C2 [Compound 2, 1-[2-(1-adamantyl)ethyl]-3-[3-(4-pyridyl)propyl]-1-(3,3,3-trifluoropropyl)urea]
Calcium influx (%) [2]: 74.1%

CCCCCN(CCC12CC3CC(CC(C3)C1)C2)C(=O)NC/C=C/c1ccncc1 [Compound 7, (E)-1-[2-(1-adamantyl)ethyl]-1-pentyl-3-[3-(4-pyridyl)-2-propenyl]urea]
Calcium influx (%) [2]: 36.1%
